The results in this text go back to ChEMBL document CHEMBL1133936, “The synthesis and tubulin binding activity of thiophene-based analogues of combretastatin A-4” (Bioorg Med Chem Lett, 2001).

SMILES strings stand for the structures.

One experiment deals with CA46. Nature of the experiment: Cytotoxicity was determined by inhibition against the Burkitt lymphoma CA46 cell line. In kind it is functional, cell-based. As to conditions: Homo sapiens.
For experiment [1], the target named is Tubulin alpha chain (Sus scrofa) (UniProt P02550). The experiment is described as follows: Inhibition of [3H]colchicine binding to tubulin at a concentration of 5.0 uM.
Experiment [2] shares this target. Nature of the experiment: Inhibition of [3H]colchicine binding to tubulin at a concentration of 50 uM.
For the next experiment, the target named is Tubulin alpha chain (Sus scrofa, UniProt P02550). The experiment is described as follows: Compound was evaluated for inhibition of tubulin polymerization. Type of experiment: functional.
A further experiment concerns MCF7. The experiment is described as follows: Cytotoxicity was determined by inhibition of cell growth of MCF-7 human breast carcinoma cell. In kind it is functional, cell-based.

Tubulin alpha chain (Sus scrofa), sequence (P02550 whole entry, looked up): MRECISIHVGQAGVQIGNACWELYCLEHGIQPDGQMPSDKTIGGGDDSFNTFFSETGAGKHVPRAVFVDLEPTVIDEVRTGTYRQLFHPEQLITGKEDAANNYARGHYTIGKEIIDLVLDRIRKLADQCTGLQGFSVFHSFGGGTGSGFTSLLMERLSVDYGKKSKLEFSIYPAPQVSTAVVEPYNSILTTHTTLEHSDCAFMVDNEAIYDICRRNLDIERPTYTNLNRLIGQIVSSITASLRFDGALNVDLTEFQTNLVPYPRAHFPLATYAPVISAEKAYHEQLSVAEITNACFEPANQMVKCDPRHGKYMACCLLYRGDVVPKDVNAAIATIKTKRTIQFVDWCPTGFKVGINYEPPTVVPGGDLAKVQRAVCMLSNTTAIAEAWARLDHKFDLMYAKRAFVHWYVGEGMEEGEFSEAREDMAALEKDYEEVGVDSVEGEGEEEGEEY
Tubulin alpha chain, sequence (P02550 whole entry, looked up): as above

In the case of `COc1ccc2c(C(O)c3ccc(OC)c(O)c3)c(-c3cc(OC)c(OC)c(OC)c3)sc2c1` (configuration not stated), the IC50 is greater than 1000 nM in the experiment on CA46 and 6100 nM against Tubulin alpha chain. The values for the inhibition in experiment [1] and in experiment [2] were 5% and 73%, respectively.
Regarding `COc1ccc2c(C(=O)c3cc(OC)c(OC)c(OC)c3)c(-c3ccc(OC)c(O)c3)sc2c1`, in experiment [1], the inhibition came to 21%.
With `COc1ccc(-c2sccc2C(=O)c2cc(OC)c(OC)c(OC)c2)cc1O`, the inhibition in experiment [1] amounted to 67%. For the same molecule, the IC50 with MCF7 was determined as 300 nM; against Tubulin alpha chain, 1000 nM.
With `COc1ccc(C(O)c2ccsc2-c2cc(OC)c(OC)c(OC)c2)cc1O` (configuration not stated), the values for the inhibition in experiment [1] and in experiment [2] were 26% and 74%, respectively. The IC50 was 500 nM in the experiment on MCF7 and 8800 nM against Tubulin alpha chain.
The molecule `COc1ccc(C(=O)c2ccsc2-c2cc(OC)c(OC)c(OC)c2)cc1O` gave an IC50 against Tubulin alpha chain greater than 40000 nM.
For `COc1ccc(C2=C(c3cc(OC)c(OC)c(OC)c3)CCS2)cc1O`, the figures for the inhibition in experiment [1] and in experiment [2] were 64% and 88%, respectively. The IC50 in the experiment on MCF7 was 390 nM; against Tubulin alpha chain, 3600 nM.

One may read the IC50 as the concentration that gives 50% inhibition. A higher IC50 goes with weaker potency in that assay. Broadly, the inhibition is the relative decrease from the control value, in per cent.
